The values below come from PubChem BioAssay AID1996.

≈ marks a conversion by molar mass, not a printed value.

The conditions of the series: buffer; pH 7.4; 200.0 µM.
For the compound `COc1ccc(NC(=O)COc2ccc3c(c2)CCC3)cc1`, the solubility (kinetic) stood at 2.7 µg/mL (≈ 9.08 µM).
For the compound `Cc1ccc(C(=O)C(C)Sc2nnc(N)s2)cc1` (stereo not given), the kinetic solubility was > 41.9 µg/mL.
In turn, `O=[N+]([O-])c1ccccc1S(=O)(=O)NCCSCc1ccco1` yielded a solubility (kinetic) of 51 µg/mL (≈ 149 µM).
`CN(CC(=O)Nc1ccc(Cl)cc1)C(=O)Cc1c(F)cccc1Cl`: the kinetic solubility worked out at 14.6 µg/mL (≈ 39.5 µM).
As to `O=C(N/N=C/c1cccnc1)c1ccco1`, the solubility (kinetic) is > 32.3 µg/mL.
As for `CC(=O)c1ccc(NC(=O)Nc2ccncc2)cc1`, the kinetic solubility was > 38.3 µg/mL.
To `CCOC(=O)c1cc([N+](=O)[O-])sc1NC(=O)CC` belongs 5.3 µg/mL (≈ 19.5 µM); to `CC(=O)Nc1ccc(CN2CCCN(C)CC2)cc1`, 29.2 µg/mL (≈ 112 µM); to `O=C(NC(=S)N1CCCCC1CO)c1cccs1` (stereo not given), > 42.7 µg/mL.
Turning to `Cc1c(Cl)cccc1-n1cnc(=O)c2ccccc21`, the kinetic solubility is > 40.6 µg/mL.
To `Cc1ccc(-c2nc(=O)[nH]c3ccccc23)cc1` belongs 25.8 µg/mL (≈ 109 µM); to `Cc1c(C(=O)NC(C)c2ccccn2)oc2c(Cl)cccc12` (stereo not given), 24.4 µg/mL (≈ 77.5 µM); to `S=c1nc(-c2ccccc2)[nH]c2ccc(Br)cc12`, < 0.3 µg/mL.
For `COc1ccccc1C(=O)NC(=O)COC(=O)C1CC1`, the solubility (kinetic) was > 41.6 µg/mL.
As for `COC(=O)c1scc(C)c1N1C(=O)c2ccccc2C1=O`, the solubility (kinetic) was determined as 4.2 µg/mL (≈ 13.9 µM).
The compound `NC(=O)C1CCN(c2ccc(S(=O)(=O)N3CCCCC3)cc2[N+](=O)[O-])CC1` gave a solubility (kinetic) of 7.6 µg/mL (≈ 19.2 µM).
On to `CCN(C(=O)CCCCC(=O)N(CC)c1ccccc1)c1ccccc1`, for which the kinetic solubility is > 52.9 µg/mL.
On to `COc1cc(C(=O)NC2CCCc3ccccc32)cc(OC)c1C` (stereo not given), for which the kinetic solubility is < 0.7 µg/mL.
As for `CNC(=O)c1csc(-c2cccs2)n1`, the kinetic solubility amounted to 33.3 µg/mL (≈ 148 µM).
In the case of `Fc1cccc(CN2CCSCC2)c1` it was 6.3 µg/mL (≈ 29.8 µM); in that of `CN(C)C=Nc1nonc1-c1ccc(Cl)cc1`, 1.4 µg/mL (≈ 5.58 µM); in that of `O=C1CN(C(=O)COc2ccc(Cl)cc2Cl)c2ccccc2N1`, 3.1 µg/mL (≈ 8.83 µM).
In the case of `O=C1CSC(c2ccccc2F)N1c1ccccc1F` (stereo not given) it was 3.2 µg/mL (≈ 11 µM); in that of `O=C1CCCC(=O)C1C1c2ccccc2CCN1C(=O)CCl` (stereo not given), > 48 µg/mL; in that of `COc1ccc(OCC(=O)NCCCn2ccnc2)cc1.Cl`, > 48.9 µg/mL.
To `Cc1sc2ncnc(N)c2c1C` belongs > 26.9 µg/mL; to `CCOc1ccc(NC(=O)c2ccc(Cl)c(NC(=O)c3ccco3)c2)cc1`, < 0.4 µg/mL.
For the compound `Cn1c(=O)c(S(=O)C2CCCCC2)c(O)c2ccccc21` (stereo not given), the solubility (kinetic) was > 45.8 µg/mL.
On to `O=C(c1cc(F)c(F)cc1Cl)N1CCN(c2ncccn2)CC1`, for which the solubility (kinetic) was 49.3 µg/mL (≈ 146 µM).
With `CCOC(=O)N1CCN(C(=O)COC(=O)c2cc(C)ccc2C)CC1`, the kinetic solubility was > 52.3 µg/mL.
To `O=C(NCCC(=O)N1CCN(c2ccccn2)CC1)c1ccc(Cl)cc1` belongs > 55.9 µg/mL; to `Cc1ccsc1C(=O)OCC(=O)N1CCN(c2ccccc2)CC1`, > 51.7 µg/mL.
In the case of `COc1ccc(S(=O)(=O)Nc2ncccn2)cc1` it was 23.1 µg/mL (≈ 87.1 µM).
With `O=C(COC(=O)/C=C/c1ccccc1)NCc1cccs1`, the solubility (kinetic) came to 17.7 µg/mL (≈ 58.7 µM).
As to `Cc1ccc(C(=O)NC(C(=O)NC2CCCC2)c2ccccc2)cc1` (stereo not given), the solubility (kinetic) is 4.1 µg/mL (≈ 12.2 µM).
For `Cc1cc(C(=O)N2CCCc3ccccc32)ccc1[N+](=O)[O-]`, the kinetic solubility was 34.7 µg/mL (≈ 117 µM).
On to `CCOC1(/N=C(\C)NS(=O)(=O)c2ccc(Cl)cc2)C(C)=CC(=O)C=C1C`, for which the solubility (kinetic) is > 59.5 µg/mL.
To `Cc1nc(Cl)sc1C(=O)Nc1cccc(Cl)c1` belongs 34.8 µg/mL (≈ 121 µM); to `COc1ccc(C(=O)Nc2cc3c4c(c2)CC(=O)N4CCC3)cc1`, > 48.4 µg/mL; to `O=C(CSc1ccccc1Cl)N1CCOCC1`, > 40.8 µg/mL.
`O=C(O)Cn1c(Cc2ccccc2)nc2ccccc21` came in with a kinetic solubility of 22.4 µg/mL (≈ 84.1 µM).
`Cc1cc(C)c(C)c(S(=O)(=O)N2CCN(C(=O)c3cc(S(=O)(=O)N4CCOCC4)ccc3F)CC2)c1C` returned a solubility (kinetic) of 12.7 µg/mL (≈ 22.9 µM).
To `Cc1ccc(NC(=O)CN(C)C(=O)COc2cccc3ccc(C)nc23)cc1` belongs 3.9 µg/mL (≈ 10.3 µM); to `CCc1sc(C(=O)Nc2nc(C)cs2)cc1C`, 7.3 µg/mL (≈ 27.4 µM); to `O=c1[nH]sc2ccccc12`, 21.7 µg/mL (≈ 144 µM).
Turning to `CCCCn1c(N)c(N(C)C(=O)c2c(C)nn(-c3ccccc3)c2C)c(=O)[nH]c1=O`, the kinetic solubility was > 61.6 µg/mL.
For the compound `Cl.Fc1c(F)c(F)c(N2CCNCC2)c(F)c1F`, the solubility (kinetic) was > 43.3 µg/mL.
On to `CCCN1C2CCCC1CC(NC(=S)Nc1ccc(OC)cc1)C2` (stereo not given), for which the kinetic solubility was > 52.1 µg/mL.
`COc1ccc(Cl)cc1NC(=S)N1CCN(S(C)(=O)=O)CC1`: the kinetic solubility was > 54.6 µg/mL.
As for `Cc1cc(C)cc(NC(=O)N(CCC#N)Cc2cccs2)c1`, the solubility (kinetic) turned out to be 4.8 µg/mL (≈ 15.3 µM).
For the compound `CC#CC[N+](C)(C)CCCCCCCCCC.[Br-]`, the kinetic solubility was > 47.8 µg/mL.
`CCN(CC(=O)Nc1ccc2c(c1)OCCO2)S(=O)(=O)c1ccc(F)cc1`: the solubility (kinetic) was > 59.2 µg/mL.
`c1cc(CCCc2ccncc2)ccn1`: the solubility (kinetic) is > 29.7 µg/mL.
In the case of `CC1CCN(CCNC(=S)Nc2ccc(Cl)cc2)CC1`, the kinetic solubility is > 46.8 µg/mL.
In the case of `CC(=O)c1sc(NCc2ccccc2)nc1C` it was 31.8 µg/mL (≈ 129 µM); in that of `CC1CCN(CCn2c(=S)[nH]c3cc4c(cc3c2=O)OCO4)CC1`, 29.4 µg/mL (≈ 84.6 µM).
As for `O=C1C2C3C=CC(C2C(=O)N1CCO)C1C(=O)N(CCO)C(=O)C31` (stereo not given), the kinetic solubility was > 50.1 µg/mL.
For `Cc1ccc(C(=O)Nc2cccc(NC(=O)CN3CCCCC3)c2)cc1`, the solubility (kinetic) came to 41.4 µg/mL (≈ 118 µM).
As for `Cc1cccc(N2CN=c3s/c(=C\c4ccccn4)c(=O)n3C2)c1`, the kinetic solubility was found to be 5.3 µg/mL (≈ 15.8 µM).
For the compound `CC(C)Cc1nc2oc3c(Cl)ncnc3c2c2c1CCCC2`, the solubility (kinetic) was < 0.2 µg/mL.
For the compound `CCc1ccccc1N1CN(Cc2cccnc2)CNC1=S`, the kinetic solubility was > 46.9 µg/mL.
For `CC(=Nc1ccccc1N)c1c(O)n(C)c(=O)n(C)c1=O`, the kinetic solubility is 3.6 µg/mL (≈ 12.5 µM).
Turning to `CCC(=NCCc1ccccc1)c1c(O)n(C)c(=O)n(C)c1=O`, the kinetic solubility came out at 42.3 µg/mL (≈ 134 µM).
On to `Cc1cc([N+](=O)[O-])nn1CC(=O)NCCCN1CCOCC1`, for which the solubility (kinetic) is > 46.7 µg/mL.
To `CCN(C(=O)C(C)Sc1nnc(-c2ccncc2)n1C)C1CCCCC1` (stereo not given) belongs > 56 µg/mL.
In the case of `COc1cc2c(cc1OC)C(C)N(C(=O)Nc1ccccc1)CC2` (stereo not given) it was 39 µg/mL (≈ 119 µM); in that of `COCCNC(=O)COC(=O)C1=Cc2ccccc2OC1`, > 43.7 µg/mL.
In turn, `COc1ccc(C2(CNS(=O)(=O)c3ccccc3)CCOCC2)cc1` yielded a kinetic solubility of 46.6 µg/mL (≈ 129 µM).
As for `Nc1cc(C(=O)OCC(=O)N2CCOCC2)ccc1Cl`, the kinetic solubility is > 44.8 µg/mL.
Take `COC(=O)c1oc(-c2ccccc2)nc1C`: the solubility (kinetic) was 15.6 µg/mL (≈ 71.8 µM).
As to `NC(=O)c1ccc(NC(=O)COC(=O)CCC2CCCCC2)cc1`, the solubility (kinetic) was determined as 9.1 µg/mL (≈ 27.4 µM).
As for `O=C1C(=O)c2ccccc2C(O)=C1c1cccc([N+](=O)[O-])c1`, the solubility (kinetic) was > 44.3 µg/mL.
Compound `CN1C(=O)/C(=C/C=C2\SCCN2C)N(C)C1=S` came in with a solubility (kinetic) of 8 µg/mL (≈ 29.7 µM).
Compound `CCOc1cc(-c2nc3ccccc3s2)ccc1O` had a solubility (kinetic) of 1.1 µg/mL (≈ 4.05 µM).
As for `S=C(NCc1ccco1)Nc1ccccc1Cl`, the kinetic solubility is > 40 µg/mL.
Consider `COc1cc(/C=C(\C#N)C(=O)N2CCCCC2)ccc1O`, for which the kinetic solubility was > 42.9 µg/mL.
`O=C(NCCc1ccc(F)cc1)c1ccc([N+](=O)[O-])cc1` showed a kinetic solubility of 4.6 µg/mL (≈ 16 µM).
In the case of `COc1ccc(OCC(=O)NC2CCSc3ccccc32)cc1` (stereo not given) it was 38.6 µg/mL (≈ 117 µM); in that of `COc1ccc(C)cc1NC(=O)CSc1cccc[n+]1[O-]`, > 45.7 µg/mL.
To `COc1ccccc1/C=N/OC(=O)c1ccc(C)cc1` belongs < 0.6 µg/mL.
Compound `Nc1nc(COc2ccccc2C=O)nc(Nc2ccccc2)n1` gave a kinetic solubility of 32.5 µg/mL (≈ 101 µM).
`CC(=O)c1c(N2CCOCC2)nc2ccc(Cl)cc2c1-c1ccccc1` yielded a kinetic solubility of 1.8 µg/mL (≈ 4.91 µM).
As to `CSc1ccccc1NC(=O)COC(=O)c1ccc(O)cc1`, the solubility (kinetic) turned out to be 12.2 µg/mL (≈ 38.4 µM).
Regarding `COc1ccc2cc(C(=O)N(C)Cc3ccccc3)[nH]c2c1`, the kinetic solubility was < 0.3 µg/mL.
In the case of `COc1cccc2c(=O)n(CC(=O)NCCc3ccccc3)ccc12` it was 1.6 µg/mL (≈ 4.76 µM); in that of `CC(C)N1CCNCC1.Cl`, 23.1 µg/mL; in that of `COc1ccccc1CC(=O)N1CCOCC1`, 34.6 µg/mL (≈ 147 µM).
In the case of `CCc1cc(=O)[nH]c(SCC(=O)NCC2CCCO2)n1` (stereo not given) it was > 44.6 µg/mL; in that of `NS(=O)(=O)c1cccc(NC(=O)CN2CCCc3ccccc32)c1`, > 51.8 µg/mL; in that of `Br.C=CCN1C2=NCCCN2c2ccccc21`, > 44.1 µg/mL.
Turning to `CCOc1ccc(C(=O)Nc2ccc3c(c2)OCCO3)cc1`, the solubility (kinetic) is < 0.6 µg/mL.
Compound `O=C(COC(=O)CNC(=O)c1ccc(Cl)cc1)Nc1ccc(Cl)cn1` came in with a solubility (kinetic) of 3.2 µg/mL (≈ 8.37 µM).
Compound `COc1cc(OC)c(C(=O)OCC(=O)NC23CC4CC(CC(C4)C2)C3)cc1OC` registered a kinetic solubility of 3.9 µg/mL (≈ 9.67 µM). The solubility kinetic values of the last two compounds are within 1.5-fold of each other.
Turning to `Cc1onc(-c2ccccc2Cl)c1C(=O)N1CCC(C)CC1`, the solubility (kinetic) is > 47.8 µg/mL.
As for `Cc1cc(=O)[nH]c(SCC(=O)Nc2nc3ccccc3s2)n1`, the solubility (kinetic) was > 49.9 µg/mL.
Turning to `CC(OC(=O)c1cn(C)c2ccccc12)C(=O)N1CCCC1` (stereo not given), the solubility (kinetic) was > 45.1 µg/mL.
Take `CCN(CC)S(=O)(=O)c1ccc(N2CC(C(=O)N3Cc4ccccc4CC3C(N)=O)CC2=O)cc1` (stereo not given): the kinetic solubility was > 74.8 µg/mL.
With `NC(=O)C1CCN(C(=O)CCC(=O)c2ccc(F)cc2)CC1`, the solubility (kinetic) was > 46 µg/mL.
`O=C(Nc1ccc(Cl)cc1C(=O)N1CCCCC1)c1ccco1` gave a kinetic solubility of 46.6 µg/mL (≈ 140 µM).
In the case of `CCN1CCN(CC2COc3ccccc3O2)CC1.Cl` (stereo not given) it was > 50.3 µg/mL.
`Cc1ccccc1C1CCCN(Cc2nc(CC3CC3)no2)C1` (stereo not given) returned a solubility (kinetic) of 24.1 µg/mL (≈ 77.4 µM).
The compound `O=[N+]([O-])c1ccccc1/C=N/OCc1ccccc1` gave a kinetic solubility of 2.6 µg/mL (≈ 10.1 µM).
In the case of `CCN1C(=O)c2ccc(C(=O)Nc3ncc(C)s3)cc2C1=O`, the solubility (kinetic) was 5.8 µg/mL (≈ 18.4 µM).
To `CC(=O)Nc1ccc(S(=O)(=O)N2CCN3CCCC3C2)cc1` (stereo not given) belongs > 48.5 µg/mL.
In the case of `O=C(Cc1ccccc1[N+](=O)[O-])NCCc1ccc(F)cc1` it was 44.6 µg/mL (≈ 148 µM).
